Assay results from ChEMBL document CHEMBL1132550, “Modeling of amino-terminal domains of group I metabotropic glutamate receptors: structural motifs affecting ligand selectivity” (J Med Chem, 1999).

What was measured:
[1] = target: Metabotropic glutamate receptor 1 (Homo sapiens, UniProt Q13255); experiment: Compound was tested for its […] activity against Ser165 and Thr188 (Metabotropic glutamate receptor 1) receptor.; type: functional
[2] = target: Metabotropic glutamate receptor 5 (Homo sapiens, UniProt P41594); experiment: Compound was tested for it's […] activity against Ser152 and Thr175 (Metabotropic glutamate receptor 5); type: functional
Sequence of Metabotropic glutamate receptor 5 (P41594 whole entry): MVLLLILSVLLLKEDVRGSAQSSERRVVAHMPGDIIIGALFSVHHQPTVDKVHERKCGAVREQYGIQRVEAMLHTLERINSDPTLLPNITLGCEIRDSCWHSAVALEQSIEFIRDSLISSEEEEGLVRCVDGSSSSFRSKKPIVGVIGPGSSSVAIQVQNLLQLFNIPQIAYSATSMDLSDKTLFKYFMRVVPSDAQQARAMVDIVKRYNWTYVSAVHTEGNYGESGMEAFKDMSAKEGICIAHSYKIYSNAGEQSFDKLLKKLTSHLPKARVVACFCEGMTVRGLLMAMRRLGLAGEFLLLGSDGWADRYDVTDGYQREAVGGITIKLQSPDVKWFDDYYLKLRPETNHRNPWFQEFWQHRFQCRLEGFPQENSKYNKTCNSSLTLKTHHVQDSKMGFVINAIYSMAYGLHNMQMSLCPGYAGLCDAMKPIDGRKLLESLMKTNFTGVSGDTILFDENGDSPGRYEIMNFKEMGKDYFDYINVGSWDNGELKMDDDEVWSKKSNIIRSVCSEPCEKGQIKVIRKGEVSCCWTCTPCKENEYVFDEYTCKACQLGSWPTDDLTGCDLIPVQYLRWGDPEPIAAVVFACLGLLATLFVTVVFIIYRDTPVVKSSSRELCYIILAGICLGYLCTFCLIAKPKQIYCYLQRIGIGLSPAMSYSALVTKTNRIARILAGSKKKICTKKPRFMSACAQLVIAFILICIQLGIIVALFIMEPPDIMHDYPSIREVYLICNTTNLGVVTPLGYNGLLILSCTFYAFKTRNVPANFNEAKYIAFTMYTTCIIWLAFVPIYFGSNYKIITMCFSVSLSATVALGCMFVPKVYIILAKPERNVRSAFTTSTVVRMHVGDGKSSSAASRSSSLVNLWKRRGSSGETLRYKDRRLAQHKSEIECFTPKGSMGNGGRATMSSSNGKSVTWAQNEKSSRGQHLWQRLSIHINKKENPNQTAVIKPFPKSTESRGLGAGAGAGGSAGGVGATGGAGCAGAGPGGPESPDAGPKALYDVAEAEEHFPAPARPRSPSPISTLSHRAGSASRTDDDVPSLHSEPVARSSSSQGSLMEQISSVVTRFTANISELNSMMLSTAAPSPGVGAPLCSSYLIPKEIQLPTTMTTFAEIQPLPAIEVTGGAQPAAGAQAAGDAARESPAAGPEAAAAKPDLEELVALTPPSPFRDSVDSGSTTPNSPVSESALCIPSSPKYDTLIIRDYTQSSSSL

Sequence of Metabotropic glutamate receptor 1 (Q13255 whole entry): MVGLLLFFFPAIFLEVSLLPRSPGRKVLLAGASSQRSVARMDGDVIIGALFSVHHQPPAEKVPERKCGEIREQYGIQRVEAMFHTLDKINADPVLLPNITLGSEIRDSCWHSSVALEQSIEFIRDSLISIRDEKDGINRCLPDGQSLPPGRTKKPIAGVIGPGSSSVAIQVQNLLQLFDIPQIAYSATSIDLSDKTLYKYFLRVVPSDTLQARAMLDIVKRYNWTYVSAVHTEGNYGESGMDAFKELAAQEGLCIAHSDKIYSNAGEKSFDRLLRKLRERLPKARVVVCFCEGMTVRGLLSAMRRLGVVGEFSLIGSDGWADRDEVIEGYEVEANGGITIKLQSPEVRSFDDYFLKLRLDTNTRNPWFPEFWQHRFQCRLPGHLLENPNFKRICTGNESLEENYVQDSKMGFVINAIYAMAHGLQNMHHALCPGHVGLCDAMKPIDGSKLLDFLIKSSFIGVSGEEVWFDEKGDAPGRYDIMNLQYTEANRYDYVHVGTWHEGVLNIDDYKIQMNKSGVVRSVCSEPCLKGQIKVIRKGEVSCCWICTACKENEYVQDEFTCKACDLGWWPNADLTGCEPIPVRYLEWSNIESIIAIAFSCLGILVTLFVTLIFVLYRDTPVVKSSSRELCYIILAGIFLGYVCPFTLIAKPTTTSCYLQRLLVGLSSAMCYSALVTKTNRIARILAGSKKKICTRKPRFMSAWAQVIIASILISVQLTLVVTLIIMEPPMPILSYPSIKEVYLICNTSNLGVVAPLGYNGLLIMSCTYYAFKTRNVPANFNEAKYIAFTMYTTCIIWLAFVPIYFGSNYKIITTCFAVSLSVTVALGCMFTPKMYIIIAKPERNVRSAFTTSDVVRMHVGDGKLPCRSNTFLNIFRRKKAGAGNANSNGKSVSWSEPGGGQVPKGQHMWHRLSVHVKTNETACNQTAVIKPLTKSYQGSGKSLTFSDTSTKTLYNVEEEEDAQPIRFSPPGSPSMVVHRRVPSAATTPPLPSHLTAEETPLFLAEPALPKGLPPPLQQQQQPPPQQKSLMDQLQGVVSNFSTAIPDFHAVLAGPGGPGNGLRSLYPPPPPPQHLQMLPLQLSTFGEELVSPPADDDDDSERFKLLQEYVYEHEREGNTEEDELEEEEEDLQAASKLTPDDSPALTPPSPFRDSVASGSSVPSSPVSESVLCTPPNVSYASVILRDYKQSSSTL

IC50 [1]	IC50 [2]	EC50 [2]	EC50 [1]	SMILES
214 µM	> 1000 µM	–	–	N[C@]1(C(=O)O)CCc2cc(C(=O)O)ccc21
–	–	103 µM	–	NC(C(=O)O)C12CC(C(=O)O)(C1)C2 (stereo not given)
–	> 100 µM	–	–	Cc1cc(C(=O)O)ccc1[C@H](N)C(=O)O
> 100 µM	0.37 µM	–	–	Cc1ccc(O)c(/N=N/c2ccccc2)n1
> 100 µM	0.29 µM	–	–	Cc1cccc(/C=C/c2ccccc2)n1
–	–	–	6.6 µM	N[C@H](C(=O)O)c1cc(O)cc(O)c1
–	–	750 µM	–	NC(C(=O)O)c1cc(O)ccc1Cl (stereo not given)
